The target in one test is FKBP12 (Homo sapiens, UniProt P62942). The test is described as follows: SPR assay to determine binding affinity to FKBP12 (direct binding). The note with it: immobilized biotinylated avi-FKBP12, single-cycle kinetics. As to the method: SPR Assay to Determine Binding Affinity to FKBP12.
Biotinylated avi-FKBP12 was immobilized on a streptavidin chip (Cytiva Series S SA) using a Biacore 8K or 8k+ (Cytiva). […] Test compounds described in Table 11 were diluted in DMSO to 100× working concentration. Each test compound was 100-fold diluted in 50 mM HEPES pH 7.5, 150 mM NaCl, 2 mM MgCl2, 1 mM DTT, 0.05% Tween-20 and a serial dilution prepared (9 concentrations, 3-fold dilutions, 0.08-500 nM). […] The compound dilutions were then injected at 100 uL/min for 120 seconds contact time in sequence with increasing concentrations. Dissociation was monitored for 3600 seconds. 50 mM HEPES pH 7.5, 150 mM NaCl, 2 mM MgCl2, 1 mM DTT, 0.05% Tween-20, 1% DMSO was used as running buffer. The single-cycle kinetics data were fit to a 1:1 binding model to measure the association rate ka (1/Ms), the dissociation rate kd (1/s) and the affinity Kd (M).

For test [1], the target named is FKBP12 ternary complex with FRB (Homo sapiens, UniProt P42345+P62942). Nature of the test: SPR assay to characterize ternary complex formation with FKBP12 (FRB injected over compound-saturated FKBP12). Particulars: FRB dilutions with 100 nM test compound over immobilized FKBP12. In kind it is binding. As to the method:
Biotinylated avi-FKBP12 was immobilized on a streptavidin chip (Cytiva Series S SA) using a Biacore 8K or 8k+ (Cytiva). To achieve an immobilization level of 100 RU, 0.3 μg/ml biotinylated avi-FKBP12 were injected for 80 sec at a flow rate of 10 μl/min. Serial dilution of FRB was prepared (12 concentrations, 3-fold dilutions, 0.00011-20 μM) and supplemented with 100 nM of a test compound. A-B-A injection mode was used to ensure saturation immobilized FKBP12 with respective test compound. 100 nM solution of the respective test compound was injected before FRB injection for 120 sec and during dissociation for 420 sec. The FRB dilutions were then injected 120 seconds contact time with increasing concentrations. Rapamycin was used as reference sample. 50 mM HEPES pH 7.5, 150 mM NaCl, 2 mM MgCl2, 1 mM DTT, 0.05% Tween-20, 1% DMSO was used as running buffer at a flow rate of 30 μl/min. The multi-cycle kinetics data were fit to a 1:1 binding model to measure the association rate ka (1/Ms), the dissociation rate kd (1/s) and the affinity Kd (M). In case of fast association and dissociation, steady state affinity analysis following the law of mass action was used to determine the affinity Kd (M).

In another test the target is T1, mTORC1 (Homo sapiens, UniProt P42345+P62942).
T1 construct: endogenous in cells; host or cells: PC-3 cells
The test is described as follows: mTORC1 inhibition in PC-3 cells, AlphaLISA of p70S6K pT389 levels. It counts as cell-based. Particulars: mTORC1 as measured by inhibition of p70S6K pT389 levels, read-out: mTROC1 IC50. As for the experimental part:
mTORC1 inhibition was determined via analysis of phosphorylation levels of Phospho-p70 S6 kinase (p70S6K pT389) and Phospho-S6 Ribosomal Protein (pRPS6 pS240/pS244) with the corresponding AlphaLISA kits (PerkinElmer Alpha SF Ultra™ Multiplex phospho (Thr389)/total p70 S6K Assay Kit (Eu/Tb) and AlphaLISA SF Ultra™ p-Ribosomal Protein S6 (Ser240/244) Assay Kit).
%−activity=100*((Sample−Low control)/(High control−Low control))

The structures appear in SMILES notation. Bounds are passed on as bounds.

Chain of FKBP12 (P62942 whole entry, species assumed): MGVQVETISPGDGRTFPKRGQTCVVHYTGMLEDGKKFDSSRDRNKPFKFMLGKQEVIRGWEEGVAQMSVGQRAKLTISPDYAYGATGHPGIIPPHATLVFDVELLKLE

For the compound `CO[C@@H]1C[C@H](C[C@@H](C)[C@@H]2CC(=O)[C@H](C)/C=C(\C)[C@@H](O)[C@@H](OC)C(=O)[C@H](C)C[C@H](C)/C=C/C=C/C=C(\C)[C@@H](OC3CC3)C[C@@H]3CC[C@@H](C)[C@@](O)(O3)C(=O)C(=O)N3CCCC[C@H]3C(=O)O2)CC[C@H]1OCCO` [Compound 527, (1R,9S,12S,15R,16E,18R,19R,21R,23S,24E,26E,28E,30S,32S,35R)-30-(cyclopropoxy)-1,18-dihydroxy-12-[(1R)-2-[(1S,3R,4R)-4-(2-hydroxyethoxy)-3-methoxy-cyclohexyl]-1-methyl-ethyl]-19-methoxy-15,17,21,23,29,35-hexamethyl-11,36-dioxa-4-azatricyclo[30.3.1.04,9]hexatriaconta-16,24,26,28-tetraene-2,3,10,14,20-pentone], the values for the Kd (at FKBP12; in test [1]) were 0.3 to 1 nM and under 500 nM, respectively. Further, on mTORC1, the IC50 was under 0.8 nM.
Take `CO[C@@H]1C[C@H](C[C@@H](C)[C@@H]2CC(=O)[C@H](C)/C=C(\C)[C@@H](O)[C@@H](OC)C(=O)[C@H](C)C[C@H](C)/C=C/C=C/C=C(\C)[C@@H](OCCO)C[C@@H]3CC[C@@H](C)[C@@](O)(O3)C(=O)C(=O)N3CCCC[C@H]3C(=O)O2)CC[C@H]1OCCCN1CCOC[C@@H]1C` [Compound 401, (1R,9S,12S,15R,16E,18R,19R,21R,23S,24E,26E,28E,30S,32S,35R)-1,18-dihydroxy-30-(2-hydroxyethoxy)-19-methoxy-12-[(1R)-2-[(1S,3R,4R)-3-methoxy-4-[3-[(3S)-3-methylmorpholin-4-yl]propoxy]cyclohexyl]-1-methyl-ethyl]-15,17,21,23,29,35-hexamethyl-11,36-dioxa-4-azatricyclo[30.3.1.04,9]hexatriaconta-16,24,26,28-tetraene-2,3,10,14,20-pentone]: in test [1], the Kd was under 500 nM.
Consider `CO[C@@H]1C[C@H](C[C@@H](C)[C@@H]2CC(=O)[C@H](C)/C=C(\C)[C@@H](O)[C@@H](OC)C(=O)[C@H](C)C[C@H](C)/C=C/C=C/C=C(\C)[C@H](OCCc3ccccc3)C[C@@H]3CC[C@@H](C)[C@@](O)(O3)C(=O)C(=O)N3CCCCC3C(=O)O2)CC[C@H]1O` (stereo partly drawn) [Compound 121, (1R,9S,12S,15R,16E,18R,19R,21R,23S,24E,26E,28E,30R,32S,35R)-1,18-dihydroxy-12-[(1R)-2-[(I S,3R,4R)-4-hydroxy-3-methoxy-cyclohexyl]-1-methyl-ethyl]-19-methoxy-15,17,21,23,29,35-hexamethyl-30-(2-phenylethoxy)-11,36-dioxa-4-azatricyclo[30.3.1.04,9]hexatriaconta-16,24,26,28-tetraene-2,3,10,14,20-pentone], for which the Kd on FKBP12 was over 1 nM; in test [1] it was under 500 nM. Moreover, the concentration for half-maximal inhibition (IC50) on mTORC1 is 0.8 to 1.5 nM.
As to `CO[C@@H]1C[C@H](C[C@@H](C)[C@@H]2CC(=O)[C@H](C)/C=C(\C)[C@@H](O)[C@@H](OC)C(=O)[C@H](C)C[C@H](C)/C=C/C=C/C=C(\C)[C@@H](OCC3COC3)C[C@@H]3CC[C@@H](C)[C@@](O)(O3)C(=O)C(=O)N3CCCC[C@H]3C(=O)O2)CC[C@H]1OCCO` [Compound 474, (1R,9S,12S,15R,16E,18R,19R,21R,23S,24E,26E,28E,30S,32S,35R)-1,18-dihydroxy-12-[(1R)-2-[(1S,3R,4R)-4-(2-hydroxyethoxy)-3-methoxy-cyclohexyl]-1-methyl-ethyl]-19-methoxy-15,17,21,23,29,35-hexamethyl-30-(oxetan-3-ylmethoxy)-11,36-dioxa-4-azatricyclo[30.3.1.04,9]hexatriaconta-16,24,26,28-tetraene-2,3,10,14,20-pentone], the dissociation constant (Kd) on FKBP12 lay in the range of 0.3 to 1 nM; in test [1], 500 to 1100 nM. Also, the IC50 at mTORC1 was under 0.8 nM.
For `CO[C@@H]1C[C@H](C[C@@H](C)[C@@H]2CC(=O)[C@H](C)/C=C(\C)[C@@H](O)[C@@H](OC)C(=O)[C@H](C)C[C@H](C)/C=C/C=C/C=C(\C)[C@@H](OC3COC3)C[C@@H]3CC[C@@H](C)[C@@](O)(O3)C(=O)C(=O)N3CCCC[C@H]3C(=O)O2)CC[C@H]1O` [Compound 523, (1R,9S,12S,15R,16E,18R,19R,21R,23S,24E,26E,28E,30S,32S,35R)-1,18-dihydroxy-12-[(2R)-1-[(1S,3R,4R)-4-hydroxy-3-methoxycyclohexyl]propan-2-yl]-19-methoxy-15,17,21,23,29,35-hexamethyl-30-(oxetan-3-yloxy)-11,36-dioxa-4-azatricyclo[30.3.1.04,9]hexatriaconta-16,24,26,28-tetraene-2,3,10,14,20-pentone], the values for the Kd (at FKBP12; in test [1]) were under 0.3 nM and over 1100 nM, respectively. For the same compound, at mTORC1, the IC50 was under 0.8 nM.
`CO[C@@H]1C[C@H](C[C@@H](C)[C@@H]2CC(=O)[C@H](C)/C=C(\C)[C@@H](O)[C@@H](OC)C(=O)[C@H](C)C[C@H](C)/C=C/C=C/C=C(\C)[C@H](OC3COC3)C[C@@H]3CC[C@@H](C)[C@@](O)(O3)C(=O)C(=O)N3CCCC[C@H]3C(=O)O2)CC[C@H]1O` [Compound 124, (1R,9S,12S,15R,16E,18R,19R,21R,23S,24E,26E,28E,30R,32S,35R)-1,18-dihydroxy-12-[(2R)-1-[(1S,3R,4R)-4-hydroxy-3-methoxycyclohexyl]propan-2-yl]-19-methoxy-15,17,21,23,29,35-hexamethyl-30-(oxetan-3-yloxy)-11,36-dioxa-4-azatricyclo[30.3.1.04,9]hexatriaconta-16,24,26,28-tetraene-2,3,10,14,20-pentone]: the Kd at FKBP12 was under 0.3 nM; in test [1], over 1100 nM. Moreover, the IC50 on mTORC1 is over 1.5 nM.
For `CO[C@@H]1C[C@H](C[C@@H](C)[C@@H]2CC(=O)[C@H](C)/C=C(\C)[C@@H](O)[C@@H](OC)C(=O)[C@H](C)C[C@H](C)/C=C/C=C/C=C(\C)[C@@H](OCC3COC3)C[C@@H]3CC[C@@H](C)[C@@](O)(O3)C(=O)C(=O)N3CCCC[C@H]3C(=O)O2)CC[C@H]1O` [Compound 521, (1R,9S,12S,15R,16E,18R,19R,21R,23S,24E,26E,28E,30S,32S,35R)-1,18-dihydroxy-12-[(2R)-1-[(1S,3R,4R)-4-hydroxy-3-methoxycyclohexyl]propan-2-yl]-19-methoxy-15,17,21,23,29,35-hexamethyl-30-[(oxetan-3-yl)methoxy]-11,36-dioxa-4-azatricyclo[30.3.1.04,9]hexatriaconta-16,24,26,28-tetraene-2,3,10,14,20-pentone] the same measures were under 0.3 nM, 500 to 1100 nM and under 0.8 nM.
`CO[C@@H]1C[C@H](C[C@@H](C)[C@@H]2CC(=O)[C@H](C)/C=C(\C)[C@@H](O)[C@@H](OC)C(=O)[C@H](C)C[C@H](C)/C=C/C=C/C=C(\C)[C@@H](OCCO)C[C@@H]3CC[C@@H](C)[C@@](O)(O3)C(=O)C(=O)N3CCCC[C@H]3C(=O)O2)CC[C@H]1OCCCN1CCOC[C@H]1C` [Compound 404, (1R,9S,12S,15R,16E,18R,19R,21R,23S,24E,26E,28E,30S,32S,35R)-1,18-dihydroxy-30-(2-hydroxyethoxy)-19-methoxy-12-[(1R)-2-[(1S,3R,4R)-3-methoxy-4-[3-[(3R)-3-methylmorpholin-4-yl]propoxy]cyclohexyl]-1-methyl-ethyl]-15,17,21,23,29,35-hexamethyl-11,36-dioxa-4-azatricyclo[30.3.1.04,9]hexatriaconta-16,24,26,28-tetraene-2,3,10,14,20-pentone]: on FKBP12, the Kd was under 0.3 nM. The IC50 on mTORC1 was under 0.8 nM.
